SMILES strings stand for the structures. Like-named read-outs stand apart in the source and are kept apart here.

A word on the EC50: it is the midpoint of the concentration-response curve.

For one assay, the system named is TEAD. The assay is described as follows: TEAD reporter assay (Hippo Pathway TEAD Reporter - MCF7 cell line, luciferase). The assay is classed as cell-based, human. The text has this:
TEAD inhibition can be assayed using Hippo Pathway TEAD Reporter—MCF7 Cell Line (BPS Bioscience, Catalog #: 60618).
The TEAD Reporter—MCF7 cell line contains the firefly luciferase gene under the control of TEAD responsive elements stably integrated into the human breast cancer cell line, MCF7. Inside the cells, basal unphosphorylated YAP/TAZ remains in the nucleus and induces the constitutive expression of luciferase reporter. The cell line is validated for the inhibition of the expression of luciferase reporter by the activators of the Hippo pathway.
• 1) Harvest TEAD Reporter—MCF7 cells from culture in growth medium and seed cells at a density of 35,000 cells per well into white clear-bottom 96-well microplate in 45 μl of assay medium. • 2) Incubate cells at 37° C. in a CO2 incubator for overnight. • 3) Dilute the activators (H2O2 or okadaic acid) stock in assay medium. Add 5 μl of diluted activators to the wells. The final concentration of DMSO in assay medium is 0.1%. • 4) Add 5 μl of assay medium with same concentration of DMSO without activator to control wells. • 5) Add 50 μl of assay medium with DMSO to cell-free control wells (for determining background luminescence). • 6) Set up each treatment in at least triplicate. • 7) Incubate cells at 37° C. in a CO2 incubator for 5-6 hours. • 8) Perform luciferase assay using the ONE-Step™ Luciferase Assay System following the protocol provided: Add 100 μl of ONE-Step™ Luciferase reagent per well and rock at room temperature for ˜15 minutes. Measure luminescence using a luminometer. • 9) Data Analysis: Obtain the background-subtracted luminescence by subtracting the average background luminescence (cell-free control wells) from the luminescence reading of all wells.
(§1) Certain compounds were tested in TEAD reporter assay, and in H226 and H28. A: EC50<0.1 uM; B: 0.1 uM≤EC50≤0.5 uM; C: EC50>0.5 uM.

The subject of the next assay is H226. The assay is described as follows: Anti-proliferation assay in H226 cells. The assay is classed as cell-based, human. Here is the method: as §1
Individual cell lines were grown in medium according to supplier instructions and seeded into 96-well plates at a density that ensured logarithmic growth over 72 hours. TEAD inhibitor compounds were administered to cells at a top concentration of 10 μm and subsequently a 10 point 3-fold serial dilution was conducted. After 72 hours, proliferation was quantified using Cell TITERGLO™ (Promega, Inc.) and compared to vehicle control. IC50 and EC50 values were generated using XLFit curve fitting software.

The mark [1] stands for this setting: Homo sapiens, MCF7, TEAD Reporter - MCF7 cells, read-out: TEAD Reporter Assay EC50.
Where [2] appears, read: Homo sapiens, NCI-H226, H226 cells, read-out: H226 EC50.
[3] abbreviates: TEAD Reporter - MCF7 cells, read-out: TEAD Reporter Assay EC50.
Setting [4] is: H226 cells, read-out: H226 EC50.

Consider `C=CC(=O)Nc1cc(Oc2cccc(C(F)(F)F)c2)cc2ncccc12` [Compound I-42], for which the half-maximal effective concentration (EC50) is less than 0.1 µM in the assay on TEAD (setting [1]) and 0.1 to 0.5 µM in the assay with H226 (setting [2]). As for `C=CC(=O)N[C@@H]1CCN(Cc2ccc(C(F)(F)F)cc2)C1` [Compound I-55, N-[(3R)-1-[[4-(trifluoromethyl)phenyl]methyl]pyrrolidin-3-yl]prop-2-enamide], the concentration giving a half-maximal response (EC50) in the assay with TEAD (setting [1]) and in the assay on H226 (setting [2]) was 0.1 to 0.5 µM each time.

Turning to `C=CC(=O)N[C@H]1Cc2ccccc2N(Cc2cccc(C(F)(F)F)c2)C1` [Compound I-60, N-[(3S)-1-[[3-(trifluoromethyl)phenyl]methyl]-3,4-dihydro-2H-quinolin-3-yl]prop-2-enamide], the concentration for a half-maximal effect (EC50) is 0.1 to 0.5 µM in the assay on TEAD (setting [1]) and less than 0.1 µM with H226 (setting [2]). For the compound `C=CC(=O)NC1CCC(Nc2ccc(C(F)(F)F)cc2)CC1` (stereo not drawn) [Compound I-56, N-[4-[4-(trifluoromethyl)anilino]cyclohexyl]prop-2-enamide], the EC50 with TEAD (setting [3]) and in the assay with H226 (setting [4]) was more than 0.5 µM in each case. Consider `C=CC(=O)Nc1ccc2c(c1)N(c1ccc(C(F)(F)F)cc1)CCC2` [Compound I-34, N-[1-[4-(Trifluoromethyl)phenyl]-3,4-dihydro-2H-quinolin-7-yl]prop-2-enamide], for which, in the assay with TEAD (setting [1]), the EC50 was more than 0.5 µM.

In the case of `C=CC(=O)Nc1cccc(N2CCCc3ccc(C(F)(F)F)cc32)c1` [Compound I-38, N-[3-[7-(trifluoromethyl)-3,4-dihydro-2H-quinolin-1-yl]phenyl]prop-2-enamide], the EC50 in the assay on TEAD (setting [1]) and in the assay on H226 (setting [2]) was more than 0.5 µM each time.

On to `C=CC(=O)N1CCC(NCc2cccc(C(F)(F)F)c2)CC1` [Compound I-61], for which the concentration for a half-maximal effect (EC50) in the assay on TEAD (setting [1]) and in the assay on H226 (setting [2]) was more than 0.5 µM throughout. On to `FC(F)(F)c1ccc(CN2CCC3(CC2)CC(Br)=NO3)cc1` [Compound I-149, 3-bromo-8-[[4-(trifluoromethyl)phenyl]methyl]-1-oxa-2,8-diazaspiro[4.5]dec-2-ene], for which the EC50 with TEAD (setting [1]) is more than 0.5 µM; with H226 (setting [2]), 0.1 to 0.5 µM.

For `C=CC(=O)NC1CCN(Cc2ccc(C(C)(C)C)cc2)CC1` [Compound I-395], the concentration giving a half-maximal response (EC50) with TEAD (setting [1]) and with H226 (setting [2]) was more than 0.5 µM throughout. Regarding `C=CC(=O)NC1CCN(c2cccc3ccccc23)CC1` [Compound I-66, N-[1-(1-Naphthyl)-4-piperidyl]prop-2-enamide], the EC50 with TEAD (setting [1]) and in the assay on H226 (setting [2]) was more than 0.5 µM each time. On to `C=CC(=O)Nc1cccc(N2CCCc3cc(C(F)(F)F)ccc32)c1` [Compound I-43], for which the EC50 with TEAD (Homo sapiens, MCF7, read-out: TEAD Reporter Assay EC50 (uM)) is more than 0.5 µM; in the assay with H226 (Homo sapiens, NCI-H226, read-out: H226 EC50 (uM)), more than 0.5 µM. In the case of `C=CC(=O)NC1(C)CCN(Cc2ccc(C(F)(F)F)cc2)CC1` [Compound I-73, N-[4-methyl-1-[[4-(trifluoromethyl)phenyl]methyl]-4-piperidyl]prop-2-enamide], the EC50 in the assay with TEAD (setting [3]) and with H226 (setting [4]) was more than 0.5 µM in each case. With `C=CC(=O)N[C@H]1CCN(Cc2ccc(C(F)(F)F)cc2)C1` [Compound I-57, N-[(3S)-1-[[4-(trifluoromethyl)phenyl]methyl]pyrrolidin-3-yl]prop-2-enamide], the concentration giving a half-maximal response (EC50) in the assay with TEAD (setting [1]) and in the assay on H226 (setting [2]) was more than 0.5 µM throughout.

Regarding `C=CC(=O)N1C[C@@H]2[C@H](C1)[C@H]2NCc1cccc(C(F)(F)F)c1` [Compound I-72, 1-[(1S,5R)-6-[[3-(trifluoromethyl)phenyl]methylamino]-3-azabicyclo[3.1.0]hexan-3-yl]prop-2-en-1-one], the concentration for a half-maximal effect (EC50) with TEAD (setting [1]) is 0.1 to 0.5 µM; in the assay with H226 (setting [2]), less than 0.1 µM. The like results for `C=CC(=O)NC1CCN(Cc2ccc(C#N)cc2)CC1` [Compound I-393] were, in that order, more than 0.5 µM and more than 0.5 µM.

On to `C=CC(=O)Nc1ccc(C)c(Oc2cc(C(F)(F)F)ccc2Br)c1` [Compound I-41, N-[3-[2-bromo-5-(trifluoromethyl)phenoxy]-4-methyl-phenyl]prop-2-enamide], for which the half-maximal effective concentration (EC50) in the assay on TEAD (setting [1]) and in the assay on H226 (setting [2]) was more than 0.5 µM throughout. As to `C=CC(=O)N[C@@H]1CCCN(Cc2cccc(C(F)(F)F)c2)C1` [Compound I-47, N-[(3R)-1-[[3-(trifluoromethyl)phenyl]methyl]-3-piperidyl]prop-2-enamide], the EC50 in the assay with TEAD (setting [1]) and in the assay on H226 (setting [2]) was more than 0.5 µM in each case.

Take `C=CC(=O)NC1CCN(Cc2ccccc2)CC1` [Compound I-54, N-(1-benzyl-4-piperidyl)prop-2-enamide]: the EC50 with TEAD (setting [1]) and in the assay on H226 (setting [2]) was more than 0.5 µM each time.

As to `C=CC(=O)NC1CCN(Cc2ccc(Cl)cc2)CC1` [Compound I-394], the EC50 in the assay on TEAD (setting [1]) and in the assay on H226 (setting [2]) was 0.1 to 0.5 µM throughout. `C=CC(=O)N[C@H]1CCN(Cc2ccc(C(F)(F)F)cc2)c2ccccc21` [Compound I-68, N-[(4S)-1-[[4-(Trifluoromethyl)phenyl]methyl]-3,4-dihydro-2H-quinolin-4-yl]prop-2-enamide]: the results for the EC50 in the assay with TEAD (setting [1]) and with H226 (setting [2]) were 0.1 to 0.5 µM and more than 0.5 µM, respectively.

Consider `C=CC(=O)N1CC[C@H](NCc2ccc(C(F)(F)F)cc2)C1` [Compound I-64, 1-[(3S)-3-[[4-(Trifluoromethyl)phenyl]methylamino]pyrrolidin-1-yl]prop-2-en-1-one], for which the EC50 in the assay on TEAD (setting [1]) and in the assay with H226 (setting [2]) was less than 0.1 µM throughout. On to `C=CC(=O)N1CC[C@@H](NCc2cccc(C(F)(F)F)c2)C1` [Compound I-386, 1-[(3R)-3-[[3-(Trifluoromethyl)phenyl]methylamino]pyrrolidin-1-yl]prop-2-en-1-one], for which the EC50 in the assay on TEAD (setting [1]) and in the assay with H226 (setting [2]) was 0.1 to 0.5 µM each time. Consider `C=CC(=O)Nc1ccc2c(c1)N(c1cccc(C(F)(F)F)c1)CCC2` [Compound I-37, N-[1-[3-(trifluoromethyl)phenyl]-3,4-dihydro-2H-quinolin-7-yl]prop-2-enamide], for which the results for the 50% effective concentration (EC50) with TEAD (setting [1]) and with H226 (setting [2]) were more than 0.5 µM and 0.1 to 0.5 µM, respectively. The like results for `C=CC(=O)N[C@@H]1Cc2ccccc2N(Cc2cccc(C(F)(F)F)c2)C1` [Compound I-71, N-[(3R)-1-[[3-(Trifluoromethyl)phenyl]methyl]-3,4-dihydro-2H-quinolin-3-yl]prop-2-enamide] were, in that order, less than 0.1 µM and less than 0.1 µM. With `C=CC(=O)N[C@H]1CCCN(Cc2cccc(C(F)(F)F)c2)C1` [Compound I-48, N-[(3S)-1-[[3-(trifluoromethyl)phenyl]methyl]-3-piperidyl]prop-2-enamide], the concentration for a half-maximal effect (EC50) in the assay on TEAD (setting [1]) is more than 0.5 µM. On to `C=CC(=O)NC1CCN(Cc2ccc(OC(F)(F)F)cc2)CC1` [Compound I-388], for which the half-maximal effective concentration (EC50) in the assay with TEAD (setting [1]) and in the assay on H226 (setting [2]) was more than 0.5 µM each time. Turning to `C=CC(=O)N1CCC(Nc2ccc(C(F)(F)F)cc2)CC1` [Compound I-59, 1-[4-[4-(trifluoromethyl)anilino]-1-piperidyl]prop-2-en-1-one], the EC50 in the assay on TEAD (setting [1]) and with H226 (setting [2]) was more than 0.5 µM throughout. Regarding `C=CC(=O)NC1CCC(Oc2ccc(C(F)(F)F)cc2)CC1` (stereo not drawn) [Compound I-70, N-[4-[4-(Trifluoromethyl)phenoxy]cyclohexyl]prop-2-enamide], the 50% effective concentration (EC50) in the assay on TEAD (setting [3]) and in the assay with H226 (setting [4]) was less than 0.1 µM throughout. For `C=CC(=O)NC1CCN(Cc2ccc(-c3ccccc3)cc2)CC1` [Compound I-389], the concentration for a half-maximal effect (EC50) in the assay with TEAD (setting [1]) and in the assay with H226 (setting [2]) was more than 0.5 µM in each case. In the case of `C=CC(=O)NC1CCC(Oc2ccc(C(F)(F)F)cc2)CC1` (stereo not drawn) [Compound I-67, N-[4-[4-(Trifluoromethyl)phenoxy]cyclohexyl]prop-2-enamide], the concentration giving a half-maximal response (EC50) in the assay on TEAD (setting [1]) and in the assay on H226 (setting [2]) was 0.1 to 0.5 µM each time.

Regarding `C=CC(=O)N1CC[C@H](NCc2cccc(C(F)(F)F)c2)C1` [Compound I-65, 1-[(3S)-3-[[3-(trifluoromethyl)phenyl]methylamino]pyrrolidin-1-yl]prop-2-en-1-one], the EC50 in the assay on TEAD (setting [1]) is 0.1 to 0.5 µM; with H226 (setting [2]) it was more than 0.5 µM. The matching figures for `C=CC(=O)Nc1cc(Oc2cccc(C(F)(F)F)c2)c2cccnc2c1` [Compound I-44, N-[5-[3-(Trifluoromethyl)phenoxy]-7-quinolyl]prop-2-enamide]: less than 0.1 µM and less than 0.1 µM. `C=CC(=O)NC1CCN(C(=O)c2ccc(C(F)(F)F)cc2)CC1` [Compound I-52, N-[1-[4-(trifluoromethyl)benzoyl]-4-piperidyl]prop-2-enamide]: the concentration giving a half-maximal response (EC50) in the assay on TEAD (setting [1]) and with H226 (setting [2]) was 0.1 to 0.5 µM in each case. `C=CC(=O)Nc1ccc(C)c(Oc2cc(C(F)(F)F)ccc2OC)c1` [Compound I-32, N-[3-[2-Methoxy-5-(trifluoromethyl)phenoxy]-4-methyl-phenyl]prop-2-enamide]: the concentration for a half-maximal effect (EC50) with TEAD (setting [1]) and in the assay with H226 (setting [2]) was more than 0.5 µM in each case.

For the origin of these results see patent US11458149B1, “TEAD inhibitors and uses thereof” (Ikena Oncology, Inc., priority 2019, dated 2022).
